Like-named read-outs stand apart in the source and are kept apart here.
Experiments:
humans = settings: for MTD-1 (Pramipexole alone): Period 1
Experimental: The ability of the 5HT3-antagonists to prevent the gastro-intestinal (GI) adverse effects (AEs) of pramipexole in humans was tested.
A Phase I study was conducted in subjects receiving a single oral dose of pramipexole dihydrochloride monohydrate (“pramipexole”) with or without a single oral dose of ondansetron hydrochloride dihydrate (“ondansetron”). The study was single center, single-blind study.
Following enrollment in the study, participants received single increasing oral doses of pramipexole given once daily in the morning (Period 1 of the study). The starting dose of pramipexole was 0.5 mg and the dose was increased daily by 0.5 mg increments. Once a subject had reached his/her first intolerable dose (FID-1), upward dose escalation was discontinued.
When a subject reached FID-1 on pramipexole alone, the subject was washed out for at least 5 days, and then entered Period 2 of the study during which the subject received single daily oral doses of pramipexole starting at 0.5 mg and titrated upward by 0.5 mg increments, together with oral ondansetron hydrochloride dihydrate (10 mg, equivalent to 8 mg ondansetron base) until subjects again reached an intolerable dose defined as above. The FID on oral pramipexole plus oral ondansetron was referred to as FID-2.
If a subject reached FID-2 during Period 2 at the same or lower dose than FID-1, and providing the investigator judged there were no safety issues and the subject was consenting, the subject received the same dose of pramipexole as the FID-2 dose together with a higher dose of oral ondansetron hydrochloride dihydrate (20 mg, equivalent to 16 mg ondansetron base) on the next day and the protocol specified that said subject should continue with the remainder of the dose titration with the higher dose of oral ondansetron hydrochloride dihydrate (20 mg, equivalent to 16 mg ondansetron base) until they reach the intolerable dose (FID2+). All other provisions of the protocol remained unchanged. Assessments were the same as those planned for the dose escalation day.
On each study day, subjects were followed up for up to 8 hours following drug administration for AEs, vital signs, ECGs. In addition, a laboratory panel was taken at screening and at the end of the study.

[1] = test system: human neuroblastoma SH-SY5Y cells; settings: cited from earlier work
PD patients = settings: doses approved for motor symptoms of PD; 535 PD patients; cited from earlier work
[2] = target: synuclein oligomer formation (Homo sapiens, UniProt P37840); settings: in vitro; cited from earlier work
[3] = test system: dopaminergic neurons in a mouse PD model; settings: cited from earlier work
patients = settings: 5 mg/day, cited from earlier work
[4] = target: human wild-type alpha-synuclein (Homo sapiens, UniProt P37840); settings: in vitro; by H2O2 plus cytochrome c; cited from earlier work

CCCN[C@H]1CCc2nc(N)sc2C1 [Pramipexole, (S)-6-propylamino-4,5,6,7-tetrahydro-1,3-benzothiazole-2-amine]
dose limiting toxicity (humans; in vivo): gastro-intestinal adverse events
MTD-1 (Pramipexole alone) (humans; subject 1001): 2.0 mg
MTD-1 (Pramipexole alone) (humans; subject 1005): 1.5 mg
MTD-1 (Pramipexole alone) (humans; subject 1006, cell wraps: NA (not tolerated at 0.5 mg), the starting dose): NA (not tolerated at
MTD-1 (Pramipexole alone) (humans; subject 1007): 4.0 mg
MTD-1 (Pramipexole alone) (humans; subject 1008): 1.0 mg
aggregation of alpha-synuclein [1]: inhibit
neuroprotective (disease modifying) activity (PD patients): failed to evidence
synuclein oligomer formation [2]: diminishes
toxic effects of rotenone on dopaminergic neurons [3]: inhibits
immunoreactivity for alpha-synuclein ([3]; rotenone): reducing
patients with nausea (patients): 76%
patients with vomiting (patients): 39%
patients not able to complete the study (patients; presumably because of intolerable GI adverse events): 36%
oligomerization of human wild-type alpha-synuclein [4]: decreases
